SMILES strings stand for the structures.

The subject of the first assay is HCV 1b genotype. Description: HCV replicon assay (HCV-neo replicon cells, wild-type). The note with it: HCV 1b genotype replicon; class symbol; read-out: EC50 Range against HCV 1b. The class given is cell-based, Hepatitis C virus. A digest of the protocol: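 Inhibition was tested in replicon-bearing cells, both wild-type HCV-neo and lines with NS5A resistance substitutions, using the O'Boyle et al. 2005 replicon method or luciferase-reporter formats.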
(A replicon is a self-replicating genome or part of one, used to study replication in cells.)
Take `O=C(Nc1ccc(-c2ccc(-c3ccc(NC(=O)[C@@H]4CCCN4C(=O)[C@H](O)c4ccccc4)cc3)o2)cc1)[C@@H]1CCCN1C(=O)[C@H](O)c1ccccc1` [JG-56, (2S,2′S)-N,N′-(2,5-furandiyldi-4,1-phenylene)bis(1-((2R)-2-hydroxy-2-phenylacetyl)-2-pyrrolidinecarboxamide)]: the EC50 (commonly the midpoint of the concentration-response curve) was less than 4.57 nM. For the compound `O=C(Nc1ccc(-c2ccc(-c3ccc(NC(=O)[C@@H]4CCCN4C(=O)[C@H](O)c4ccccc4)cc3)o2)cc1)[C@@H]1CCCN1C(=O)[C@H](O)c1ccccc1` [JG-57, (2S,2′S)-N,N′-(2,5-furandiyldi-4,1-phenylene)bis(1-((2R)-2-hydroxy-2-phenylacetyl)-2-pyrrolidinecarboxamide)], the EC50 is 100 to 999 nM.

Still in this assay, the particulars now being: Hepatitis C virus, HCV 1b genotype replicon; class symbol; read-out: EC50 Range against HCV 1b.
For `COc1cccc2c(C(=O)N3CCC[C@H]3C(=O)Nc3ccc(-c4nc[nH]c4-c4ccc(NC(=O)[C@@H]5CCCN5C(=O)c5nc(Cl)cc6c(OC)cccc56)cc4)cc3)nc(Cl)cc12` [JG-50, (2S,2′S)-N,N′-(1H-imidazole-4,5-diyldi-4,1-phenylene)bis(1-((3-chloro-5-methoxy-1-isoquinolinyl)carbonyl)-2-pyrrolidinecarboxamide)], the EC50 was in the range of 100 to 999 nM. For the compound `O=C(Nc1ccc(-c2nc[nH]c2-c2ccc(NC(=O)[C@@H]3CCCN3C(=O)c3cc4ccccc4o3)cc2)cc1)[C@@H]1CCCN1C(=O)c1cc2ccccc2o1` [JG-51, (2S,2′S)-N,N′-(1H-imidazole-4,5-diyldi-4,1-phenylene)bis(1-(1-benzofuran-2-ylcarbonyl)-2-pyrrolidinecarboxamide)], the EC50 is 100 to 999 nM. In the case of `O=C(Nc1ccc(-c2nc[nH]c2-c2ccc(NC(=O)[C@@H]3CCCN3C(=O)c3ccc4occc4c3)cc2)cc1)[C@@H]1CCCN1C(=O)c1ccc2occc2c1` [JG-52, (2S,2′S)-N,N′-(1H-imidazole-4,5-diyldi-4,1-phenylene)bis(1-(1-benzofuran-5-ylcarbonyl)-2-pyrrolidinecarboxamide)], the EC50 fell in the range of 100 to 999 nM.

As for `C[C@@H](C(=O)N1CCC[C@H]1C(=O)Nc1ccc(-c2ccc(-c3ccc(NC(=O)[C@@H]4CCCN4C(=O)[C@H](C)c4ccccc4)cc3)o2)cc1)c1ccccc1` [JG-53, (2S,2′S)-N,N′-(2,5-furandiyldi-4,1-phenylene)bis(1-((2R)-2-phenylpropanoyl)-2-pyrrolidinecarboxamide)], the EC50 lay within 4.57 to 99 nM. `O=C(Nc1ccc(-c2ccc(-c3ccc(NC(=O)[C@@H]4CCCN4C(=O)OCc4ccccc4)cc3)o2)cc1)[C@@H]1CCCN1C(=O)OCc1ccccc1` [JG-54, dibenzyl (2S,2′S)-2,2′-(2,5-furandiylbis(4,1-phenylenecarbamoyl))di(1-pyrrolidinecarboxylate)]: the EC50 lay in the range of 100 to 999 nM. As to `CC(=O)N1CCC[C@H]1C(=O)Nc1ccc(-c2ccc(-c3ccc(NC(=O)[C@@H]4CCCN4C(C)=O)cc3)o2)cc1` [JG-55, (2S,2′S)-N,N′-(2,5-furandiyldi-4,1-phenylene)bis(1-acetyl-2-pyrrolidinecarboxamide)], the EC50 lay in the range of 100 to 999 nM.

With `C[C@](O)(C(=O)N1CCC[C@H]1C(=O)Nc1ccc(-c2ccc(-c3ccc(NC(=O)[C@@H]4CCCN4C(=O)[C@](C)(O)c4ccccc4)cc3)o2)cc1)c1ccccc1` [JG-58, (2S,2′S)-N,N′-(2,5-furandiyldi-4,1-phenylene)bis(1-((2R)-2-hydroxy-2-phenylpropanoyl)-2-pyrrolidinecarboxamide)], the EC50 was 4.57 to 99 nM. Take `CC(O)(C(=O)N1CCC[C@H]1C(=O)Nc1ccc(-c2ccc(-c3ccc(NC(=O)[C@@H]4CCCN4C(=O)[C@@](C)(O)c4ccccc4)cc3)o2)cc1)c1ccccc1` (stereo partly drawn) [JG-59, (2S)-1-((2S)-2-hydroxy-2-phenylpropanoyl)-N-(4-(5-(4-((((2S)-1-(2-hydroxy-2-phenylpropanoyl)-2-pyrrolidinyl)carbonyl)amino)phenyl)-2-furyl)phenyl)-2-pyrrolidinecarboxamide]: the EC50 is less than 4.57 nM.

In the case of `COc1cccc2c(C(=O)N3CCC[C@H]3C(=O)Nc3ccc(-c4ccc(-c5ccc(NC(=O)[C@@H]6CCCN6C(=O)c6nc(Cl)cc7c(OC)cccc67)cc5)o4)cc3)nc(Cl)cc12` [JG-60, (2S,2′S)-N,N′-(2,5-furandiyldi-4,1-phenylene)bis(1-((3-chloro-5-methoxy-1-isoquinolinyl)carbonyl)-2-pyrrolidinecarboxamide)], the EC50 was 1000 to 10000 nM. Turning to `O=C(Nc1ccc(-c2ccc(-c3ccc(NC(=O)[C@@H]4CCCN4C(=O)c4nc(Cl)cc5ccccc45)cc3)o2)cc1)[C@@H]1CCCN1C(=O)c1nc(Cl)cc2ccccc12` [JG-61, (2S,2′S)-N,N′-(2,5-furandiyldi-4,1-phenylene)bis(1-((3-chloro-1-isoquinolinyl)carbonyl)-2-pyrrolidinecarboxamide)], the EC50 was in the range of 1000 to 10000 nM. On to `O=C(Nc1ccc(-c2ccc(-c3ccc(NC(=O)[C@@H]4CCCN4C(=O)c4nccc5ccccc45)cc3)o2)cc1)[C@@H]1CCCN1C(=O)c1nccc2ccccc12` [JG-62, (2S,2′S)-N,N′-(2,5-furandiyldi-4,1-phenylene)bis(1-(1-isoquinolinylcarbonyl)-2-pyrrolidinecarboxamide)], for which the EC50 is 100 to 999 nM. On the same count and under the same terms, the same measure for `CN(C)[C@@H](C(=O)N1CCC[C@H]1C(=O)Nc1ccc(-c2ccc(-c3ccc(NC(=O)[C@@H]4CCCN4C(=O)[C@@H](c4ccccc4)N(C)C)cc3)o2)cc1)c1ccccc1` [JG-63, (2S,2′S)-N,N′-(2,5-furandiyldi-4,1-phenylene)bis(1-((2R)-2-(dimethylamino)-2-phenylacetyl)-2-pyrrolidinecarboxamide)]: less than 4.57 nM; for `COc1cccc2c(C(=O)N3CCC[C@H]3C(=O)Nc3ccc(-c4ccc(-c5ccc(NC(=O)[C@@H]6CCCN6C(=O)[C@H](O)c6ccccc6)cc5)o4)cc3)nc(Cl)cc12` [JG-64, (2S)-1-((3-chloro-5-methoxy-1-isoquinolinyl)carbonyl)-N-(4-(5-(4-((((2S)-1-((2R)-2-hydroxy-2-phenylacetyl)-2-pyrrolidinyl)carbonyl)amino)phenyl)-2-furyl)phenyl)-2-pyrrolidinecarboxamide]: 4.57 to 99 nM.

With `COc1cccc2c(C(=O)N3CCC[C@H]3C(=O)Nc3ccc(-c4ccc(-c5ccc(NC(=O)[C@@H]6CCCN6C(=O)[C@@H](c6ccccc6)N(C)C)cc5)o4)cc3)nc(Cl)cc12` [JG-65, (2S)-1-((3-chloro-5-methoxy-1-isoquinolinyl)carbonyl)-N-(4-(5-(4-((((2S)-1-((2R)-2-(dimethylamino)-2-phenylacetyl)-2-pyrrolidinyl)carbonyl)amino)phenyl)-2-furyl)phenyl)-2-pyrrolidinecarboxamide], the EC50 is less than 4.57 nM. Consider `CN(C)[C@@H](C(=O)N1CCC[C@H]1C(=O)Nc1ccc(-c2ccc(-c3ccc(NC(=O)[C@@H]4CCCN4C(=O)[C@H](O)c4ccccc4)cc3)o2)cc1)c1ccccc1` [JG-66, (2S)-1-((2R)-2-(dimethylamino)-2-phenylacetyl)-N-(4-(5-(4-((((2S)-1-((2R)-2-hydroxy-2-phenylacetyl)-2-pyrrolidinyl)carbonyl)amino)phenyl)-2-furyl)phenyl)-2-pyrrolidinecarboxamide], for which the EC50 was less than 4.57 nM. With `COc1cccc2c(C(=O)N3CCC[C@H]3C(=O)Nc3ccc(-c4ccc(-c5ccc(NC(=O)[C@@H]6CCCN6C(=O)[C@H](NC(C)=O)c6ccccc6)cc5)o4)cc3)nc(Cl)cc12` [JG-67, (2S)-1-((2R)-2-acetamido-2-phenylacetyl)-N-(4-(5-(4-((((2S)-1-((3-chloro-5-methoxy-1-isoquinolinyl)carbonyl)-2-pyrrolidinyl)carbonyl)amino)phenyl)-2-furyl)phenyl)-2-pyrrolidinecarboxamide], the EC50 was in the range of 4.57 to 99 nM. Take `COc1cccc2c(C(=O)N3CCC[C@H]3C(=O)Nc3ccc(-c4ccc(-c5ccc(NC(=O)[C@@H]6CCCN6C(=O)[C@@H](O)c6ccccc6)cc5)o4)cc3)nc(Cl)cc12` [JG-68, (2S)-1-((3-chloro-5-methoxy-1-isoquinolinyl)carbonyl)-N-(4-(5-(4-((((2S)-1-((2S)-2-hydroxy-2-phenylacetyl)-2-pyrrolidinyl)carbonyl)amino)phenyl)-2-furyl)phenyl)-2-pyrrolidinecarboxamide]: the EC50 lay within 100 to 999 nM.

The assay is the same for the next values; noted with them: Hepatitis C virus, HCV 1b genotype replicon; class symbols; read-out: EC50 Range against HCV 1b.
Regarding `Cn1cc(C(=O)C(=O)N2CCC[C@H]2C(=O)Nc2ccc(-c3cnc(-c4ccc(NC(=O)[C@@H]5CCCN5C(=O)C(=O)c5cn(C)c6ccccc56)cc4)o3)cc2)c2ccccc21` [JR-1, (2S,2′S)-N,N′-(2,5-oxazolediyldi-4,1-phenylene)bis[1-[2-(1-methyl-1H-indol-3-yl)-1,2-dioxoethyl]-2-pyrrolidinecarboxamide]], the EC50 lay within 100 to 999 nM.

Consider `O=C(Nc1ccc(-c2cnc(-c3ccc(NC(=O)[C@@H]4CCCN4C(=O)C(O)C(F)(F)F)cc3)o2)cc1)[C@@H]1CCCN1C(=O)C(O)C(F)(F)F` (stereo partly drawn) [JR-2, (2S,2′S)-N,N′-(2,5-oxazolediyldi-4,1-phenylene)bis[1-(3,3,3-trifluoro-2-hydroxy-1-oxopropyl)-2-pyrrolidinecarboxamide]], for which the EC50 fell in the range of 100 to 999 nM. In the case of `Cn1cncc1C(O)C(=O)N1CCC[C@H]1C(=O)Nc1ccc(-c2cnc(-c3ccc(NC(=O)[C@@H]4CCCN4C(=O)C(O)c4cncn4C)cc3)o2)cc1` (stereo partly drawn) [JR-3, (2S,2′S)-N,N′-(2,5-oxazolediyldi-4,1-phenylene)bis[1-[hydroxy(1-methyl-1H-imidazol-5-yl)acetyl]-2-pyrrolidinecarboxamide]], the EC50 fell in the range of 100 to 999 nM. Turning to `O=C(Nc1ccc(-c2cnc(-c3ccc(NC(=O)[C@@H]4CCCN4C(=O)C(O)Cc4cccnc4)cc3)o2)cc1)[C@@H]1CCCN1C(=O)C(O)Cc1cccnc1` (stereo partly drawn) [JR-4, (2S,2′S)-N,N′-(2,5-oxazolediyldi-4,1-phenylene)bis[1-[2-hydroxy-1-oxo-3-(3-pyridinyl)propyl]-2-pyrrolidinecarboxamide]], the EC50 fell in the range of 1000 to 10000 nM. On the same count and under the same terms, in the case of `O=C(Nc1ccc(-c2cnc(-c3ccc(NC(=O)[C@@H]4CCCN4C(=O)C(O)Cc4c[nH]c5ccccc45)cc3)o2)cc1)[C@@H]1CCCN1C(=O)C(O)Cc1c[nH]c2ccccc12` (stereo partly drawn) [JR-5, (2S,2′S)-N,N′-(2,5-oxazolediyldi-4,1-phenylene)bis[1-[2-hydroxy-3-(1H-indol-3-yl)-1-oxopropyl]-2-pyrrolidinecarboxamide]] it was 100 to 999 nM.

The assay is the same for the next values; noted with them: Hepatitis C virus, HCV 1b genotype replicon; read-out: EC50 1b.
In the case of `O=C(Nc1ccc(-c2ccc(-c3ccc(NC(=O)[C@@H]4CCCN4C(=O)[C@H](O)c4ccccc4)cc3)o2)cc1)[C@@H]1CCCN1C(=O)[C@H](O)c1ccccc1` [JG-56, (2S,2′S)-N,N′-(2,5-furandiyldi-4,1-phenylene)bis(1-((2R)-2-hydroxy-2-phenylacetyl)-2-pyrrolidinecarboxamide)], the EC50 is less than 5 nM. Consider `COc1cccc2c(C(=O)N3CCC[C@H]3C(=O)Nc3ccc(-c4ccc(-c5ccc(NC(=O)[C@@H]6CCCN6C(=O)[C@H](NC(C)=O)c6ccccc6)cc5)o4)cc3)nc(Cl)cc12` [JG-67, (2S)-1-((2R)-2-acetamido-2-phenylacetyl)-N-(4-(5-(4-((((2S)-1-((3-chloro-5-methoxy-1-isoquinolinyl)carbonyl)-2-pyrrolidinyl)carbonyl)amino)phenyl)-2-furyl)phenyl)-2-pyrrolidinecarboxamide], for which the EC50 was found to be 5.2 nM.

For the origin of these results see patent publication US8735398B2 (Bristol-Myers Squibb Company, priority 2009, dated 2014).
